From EP3766544A1 (Centre Hospitalier Regional Universitaire de Lille, priority 2019, dated 2021) come the findings set out here.

Molecules are shown by their SMILES.

For one assay, the target named is T1, hPD-L1-eGFP (Homo sapiens, UniProt Q9NZQ7).
T1 construct: expressed in transfected cells; host or cells: CHO-K1 (cell lysate used)
The experiment in a line: Microscale thermophoresis (MST) PD-L1 binding assay. The conditions noted are these: CHO-K1 cell lysate, hPD-L1-eGFP 35 nM, PBS-T buffer (0.05% Tween 20). From the text:
The quantity of cells for this protocol can vary from 10 to 40 million. […] Different types of additives such as Tween 20, various MgCl2 concentrations, BSA have been tested to avoid sample aggregation and different types of capillaries have been investigated to reduce the adsorption within capillaries. Various buffers have also been tested and are listed in the related section. The fluorescence measurement is made using a small quantity of cell lysate within a capillary chosen among different available capillaries: standard, premium, hydrophilic or hydrophilic. The highest concentration of ligand must be at least 20 times higher than the expected dissociation constant of the interaction under study. However, the lowest concentration of ligand must be lower than the concentration of the fluorescent protein. An online tool created by NanoTemper® can be used and allows determining the range of ideal concentration. The concentration of the fluorescent protein can be determined using a GFP dosage kit (Abnova KA0911) or a calibration curve.
CHO-K1 cells were transfected with the Cell Line Nucleofector® Kit T, Program U-023 and the pcDNA 3.1 hygro plasmid expressing PD-1-eGFP. 2 µg of plasmid was transfected in one million CHO-K1 cells suspended in 100 µL Nucleofector solution. Cells were analyzed 48 hours post Nucleofection® by flow cytometry. Cells are put under the appropriate selective pressure which will only allow growth of cells containing the DNA insert. After three weeks of selective pressure, the multiparametric analysis of transfected CHO-K1 cells over-expressing mPD-1-eGFP allows defining sub-populations which can be separated from the global population. The population of cells strongly expressing eGFP is analyzed by flow cytometry and kept for MicroScale Thermophoresis analysis. The exact same protocol from transfection to cytometry analysis is lead on CHO-K1 cells expressing the hPD-L1-eGFP protein.
MST was used to establish the binding affinity between PD-L1-eGFP and Compounds. Cell lysate was diluted in PBS-T buffer (0.05% Tween 20) to a final concentration at which the fluorescent signals of the GFP proteins were similar and above the typical detection limit of the Monolith NT.115 instrument (NanoTemper Technologies). […] For the binding between hPD-L1-eGFP with compounds, several dilutions were made between 1mM to 1 nM to cover a wide concentration range. Ten microliters of cell lysate are added to 10 µL of each ligand solution. Nivolumab was taken as reference.
A general note: In MST a laser heats a spot of the sample, and binding alters the fluorescence response.

Assay [1] addresses T2, interaction between PD-1 and PD-L1 (Homo sapiens, UniProt Q9NZQ7).
T2 construct: expressed in transfected cells; host or cells: CHO-K1 co-transfected with PD-1-YFP and SHP-2-CFP
As to the kind of experiment: FRET assay (PD-1-YFP / SHP-2-CFP in CHO-K1 cells, activation with PD-L1). The assay is classed as cell-based. The settings on record: co-transfected PD-1-SHP2 CHO-K1 cells, after addition of PD-L1 (10 µM). The source says: Energy transfer between fluorescent molecules (FRET) is a technique that allows visualizing interactions between 2 fluorescent molecules. A fluorescent molecule, called "donor", will transfer its energy, once excited, to another fluorescent molecule called "acceptor". The fluorescence of the donor decreases while the acceptor's one increases (see Figure 1).
A model was developed using CHO-K1 cells involving overexpression of proteins of interest. It involves the expression of a PD-1-YFP fluorescent protein and a second fluorescent protein SHP-2-CFP (phosphatase recruited during the interaction between PD-1 and PD-L1).
A Spectramax i3 is configured according to the selected fluorochromes with their excitation and emission spectra. Endpoint reading is performed, at the center of the well; the reading time is 2 minutes for a 96-well plate.
For this test, a 96-well flat-bottomed white plate is required. All mixes introduced into the plate are made of triplicate. The negative control is provided by the CHO transfected by the void plasmid, the positive control is provided by CHO transfected with a plasmid containing the YFP-CFP fusion protein making it possible to mimic the FRET phenomenon. […] It is also necessary to remove the background noise, that is to say the FRET without activation with PD-L1. […] Nivolumab was taken as positive control of interaction's inhibitions.

Assay [2] in a line: In vitro spread test (CFSE CellTrace cell proliferation, flow cytometry). The assay is classed as cell-based. The settings on record: IC50 of proliferation, flow cytometry D0 to D3. The source says: The CellTrace™ Cell Proliferation Kits provide versatile and well-retained cell tracing reagents in a convenient and easyto-use form. Each kit contains a CellTrace™ reagent in single-use vials to permit small scale experiments without preparing excess quantities of stock solution. The CellTrace™ reagents readily diffuse into cells and bind covalently to intracellular amines, resulting in stable, well-retained fluorescent staining that can be fixed with aldehyde fixatives. Excess unconjugated reagent passively diffuses to the extracellular medium, where it can be quenched with complete media and washed away. The kit is supplied by ThermoFisher Scientific.
• 1. Number of days on which the manipulation is done: 3 (from D0 to D3: 4 passages in cytometry) • 2. Volume of cell suspension needed: 2.5ml (0.5ml / day) • 3. Number of cells needed: 2.5mlx0.5M / ml = 1.25M per cell line. • 4. Number the cells and check their viability. • 5. Prepare the desired number of cells. • 6. Centrifuge, resuspend at a 1M/mL concentration in PBS (the probe binds to the proteins of the medium) • 7. Add 0.5µM of CellTrace (dilute 1/10 of the stock solution, add 1 / 1000th in the PBS-cell mix: take 1µl of probe at the main concentration, add 9µL of PBS) • 8. Incubate for 20 minutes at 37 ° C in the dark. • 9. Add 5 volumes of medium to capture the excess of probe (1.2x5 = 6ml) • 10. Incubate for 5 minutes at 37 ° C. • 11. Centrifuge, resuspend the cells at the desired concentration of 0.5M / ml in preheated medium. Plate 24 wells. • 12. Establish the J0 at least 5h after marking. • 13. Flow cytometry is then performed to evaluate cell division and to determine an IC50 of proliferation using Graphpad.
(In general: In flow cytometry, cells or beads pass a laser one at a time.)

T2 sequence (Q9NZQ7 19-238 limits assumed): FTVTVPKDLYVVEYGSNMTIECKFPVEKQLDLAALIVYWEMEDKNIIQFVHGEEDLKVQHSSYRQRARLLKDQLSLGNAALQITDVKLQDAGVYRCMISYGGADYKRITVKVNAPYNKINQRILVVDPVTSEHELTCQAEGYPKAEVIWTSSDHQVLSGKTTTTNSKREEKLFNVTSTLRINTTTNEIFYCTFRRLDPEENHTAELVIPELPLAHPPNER
T1 sequence (Q9NZQ7 19-290): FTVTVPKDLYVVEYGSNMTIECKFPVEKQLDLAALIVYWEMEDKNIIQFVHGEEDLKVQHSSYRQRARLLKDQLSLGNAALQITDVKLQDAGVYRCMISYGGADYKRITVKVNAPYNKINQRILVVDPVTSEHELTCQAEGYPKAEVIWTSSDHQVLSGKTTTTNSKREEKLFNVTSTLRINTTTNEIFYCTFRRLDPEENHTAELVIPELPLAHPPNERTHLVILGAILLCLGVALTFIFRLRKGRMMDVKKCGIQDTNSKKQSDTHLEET

Broadly, the Kd is the concentration at which binding is half-saturated. What is called IC50 is the concentration at which inhibition is half-maximal. High values mean weaker potency, low ones greater potency. With `O=C1CC(c2ccc(Cl)cc2Cl)=NN1c1ccccn1` [ALIPD26, 3-(2,4-Dichlorophenyl)-1-(pyridin-2-yl)-4,5-dihydro-1H-5-pyrazolone], binding at hPD-L1-eGFP was characterised by a dissociation constant (Kd) of 110 ± 17 nM. The compound also gave an IC50 in assay [1] of 98 ± 12 nM.

`COc1ccc(C2=NN(c3ccccn3)C(=O)C2)cc1` [ALIPD19, 3-(4-Methoxyphenyl) -1-(pyridin-2-yl)-4,5-dihydro-1H-5-pyrazolone] returned a Kd on hPD-L1-eGFP of 83 nM. In addition, the concentration for half-maximal inhibition (IC50) in assay [1] stood at 17 nM; in assay [2], 75 nM.

In turn, `COc1ccc(C2=NN(c3ccc(Cl)cc3Cl)C(=O)C2)cc1` [ALIPX05, 1-(2,4-Dichlorophenyl)-3-(4-methoxyphenyl)-4,5-dihydro-1H-5-pyrazolone] registered a Kd on hPD-L1-eGFP of 68000 ± 7000 nM. For the same compound, in assay [1], the IC50 was found to be 51000 ± 3000 nM.

In turn, `COc1ccc(C2=NN(c3cc(Cl)ccc3Cl)C(=O)C2)cc1` returned a Kd on hPD-L1-eGFP of 8000 ± 2000 nM. Also, the IC50 in assay [1] was determined as 12000 ± 3000 nM.

For the compound `COc1ccc(C2=NN(c3ccc(Cl)cc3Cl)C(=O)C2)cc1OC` [ALIPD52, 1-(2,4-Dichlorophenyl)-3-(3,4-dimethoxyphenyl)-4,5-dihydro-1H-5-pyrazolone], the Kd on hPD-L1-eGFP turned out to be 212 ± 23 nM. Further, the IC50 in assay [1] came out at 196 ± 17 nM.

`O=C1CC(C2CCCCCC2)=NN1c1ccc(Cl)cc1Cl` came in with a Kd at hPD-L1-eGFP of 80000 ± 12000 nM. The compound also registered an IC50 in assay [1] of 67000 ± 9000 nM.

`O=C1CC(c2cccc(C(F)(F)F)c2)=NN1c1ccccn1` [ALIPD58, 1-(2-pyridyl)-3-[3-(trifluoromethyl)phenyl]-4,5-dihydro-1H-5-pyrazolone] came in with a Kd at hPD-L1-eGFP of 1200 nM. In assay [1], this compound displayed an IC50 of 1100 nM.

For `COc1ccc(C2=NN(c3ccc(OC)cc3)C(=O)C2)cc1` [ALIPD24, 1-(4-methoxyphenyl)-3-(4-methoxyphenyl)-4,5-dihydro-1H-5-pyrazolone], the Kd on hPD-L1-eGFP came to 375 ± 43 nM. Besides, the midpoint of inhibition in assay [1], the IC50, lay at 230 ± 35 nM. Also, the “In vitro spread test” value in assay [2] is “No effect”.

Take `COc1ccc(C2=NN(c3cc(Cl)cc(Cl)c3)C(=O)C2)cc1` [ALIPX02, 1-(3,5-Dichlorophenyl)-3-(4-methoxyphenyl)-4,5-dihydro-1H-5-pyrazolone]: at hPD-L1-eGFP, binding was put at a Kd of 18000 ± 3000 nM. Moreover, 15000 ± 5000 nM corresponded to half-maximal inhibition in assay [1] (IC50).

`COc1ccccc1C1=NN(c2ccccn2)C(=O)C1` [ALIPD60, 3-(2-methoxyphenyl)-1-(2-pyridyl)-4,5-dihydro-1H-5-pyrazolone] came in with a Kd on hPD-L1-eGFP of 23 nM. Further, the IC50 in assay [1] came out at 7 nM.

`O=C1CC(C23CC4CC(CC(C4)C2)C3)=NN1c1cc(Cl)cc(Cl)c1` [ALIPD28, 3-(Adamantan-1-yl)-1-(3,5-dichlorophenyl)-4,5-dihydro-1H-5-pyrazolone] displayed a Kd at hPD-L1-eGFP of 890 ± 75 nM. The IC50 in assay [1] worked out at 785 ± 87 nM.

`O=C1CC(c2ccc([N+](=O)[O-])cc2)=NN1c1ccc(Cl)cc1Cl` [ALIPD33, 1-(2,4-Dichlorophenyl)-3-(4-nitrophenyl)-4,5-dihydro-1H-5-pyrazolone]: binding on hPD-L1-eGFP was characterised by a dissociation constant (Kd) of 72000 ± 17000 nM. Also, the IC50 in assay [1] worked out at 43000 ± 6000 nM.

On hPD-L1-eGFP, `O=C1CC(c2ccc(Cl)cc2)=NN1c1ccccn1` [ALIPD59, 3-(4-chlorophenyl)-1-(2-pyridyl)-4,5-dihydro-1H-5-pyrazolone] yielded a Kd of 27000 ± 5000 nM. The compound also showed an IC50 in assay [1] of 33000 ± 7000 nM.

The compound `O=C1CC(C23CC4CC(CC(C4)C2)C3)=NN1c1ccccn1` [ALIPX57, 3-(Adamantan-1-yl)-1-(pyridin-2-yl)-4,5-dihydro-1H-5-pyrazolone] registered a Kd on hPD-L1-eGFP of 340 ± 27 nM. The values for the IC50 in assay [1] and in assay [2] were 4 ± 2 nM and 192 nM, respectively.

On hPD-L1-eGFP, `O=C1CC(c2ccccc2)=NN1c1ccc(Cl)cc1Cl` came in with a Kd of 14000 ± 3000 nM. Moreover, the IC50 in assay [1] came out at 9000 ± 5000 nM.
